The values below come from US10143748B2, “B-cell reduction using CD37-specific and CD20-specific binding molecules” (Emergent Product Development Seattle, LLC, priority 2005, dated 2018).

For test [1], the system named is B-CLL cells. The experiment in a line: MTT cell viability of CLL cells with fludarabine and TRU-016. In kind it is cell-based, human. As to conditions: MTT at 48 hr, TRU-016 with fludarabine, FIG. 27. As to the method: Cells were treated with TRU-016 at dosages ranging from 0.1-100 μg/mL and with fludarabine at dosages ranging from 0-20 μM (see FIG. 27). TRU-016 was provided by Trubion Pharmaceuticals (Seattle, Wash.). Fludarabine (F-araA) was purchased from SIGMA (St. Louis, Mo.). RPMI 1640 media was purchased from Invitrogen (Carlsbad, Calif.). Fluorescein isothiocyanate (FITC)-labeled annexin V, and propidium iodide (P1) were purchased from BD Pharmingen, San Diego, Calif. 13-(4,5-dimethylthiazol-2-yl)-2,5-diphenyltetrazolium bromide (MTT) was purchased from Sigma (St. Louis, Mo.). B-CLL cells were isolated immediately following donation using ficoll density gradient centrifugation (Ficoll-Paque Plus, Amersham Biosciences, Piscataway, N.J.). […]
Cells were treated in vitro as described herein. […] Cell viability was assessed using MTT assays at 48 hr, and apoptosis was measured using Annexin V/PI at 24 hr.
MTT assays were performed to measure cell viability as described herein. […] Samples were measured with a plate reader at 0.D.540. Cell viability was expressed as the percentage of viability compared with media control.
A synergistic effect was determined by use of the isobologram method. […]

The test system of test [2] is Daudi tumors. The experiment in a line: Daudi tumor xenograft in nude mice. It is filed as in vivo, mouse. The method, then:
Ramos and Daudi tumor cells were separately grown and (5×10^6) cells were injected subcutaneously in the right flank of mice to initiate the formation of mouse tumor xenografts. After tumor development, mice were sorted into groups based on tumor size/volume (day 0). […] Tumor volume was blindly measured three times weekly with calipers until completion of the experiment (sacrifice or regression).

Test [3] deals with T1, C1q (Homo sapiens, UniProt P02745+P02746+P02747).
T1 construct: normal human serum (NHS, #A113, Quidel Corp., San Diego, Calif.); tissue Quidel Corp. A113; host or cells: normal human serum (purchased), added to reagent-coated Ramos B cells
The experiment in a line: FITC C1q binding to reagent-coated Ramos B cells in normal human serum. As to conditions: normal human serum 1.25-10%, FIG. 3A.
Description: C1q binding studies were performed as previously described (Cragg et al., Blood 2004, 103:2738-2743). Briefly, Ramos B-cells in Iscoves media (#12440-053, Gibco/Invitrogen, Grand island, NY) with no serum were plated in 96-well V bottom plates at 5×10^5/well in 100 μl. Cells were incubated with reagents for 15 minutes at 37° C., and normal human serum (NHS, #A113, Quidel Corp., San Diego, Calif.) diluted in Iscoves was then added at a volume of 50 μl to each well for a final concentration of 10, 5, 2.5, or 1.25% human serum. Fifty μl of media was added to the control well. For cobra venom factor (CVF) experiments, CVF was added to human serum complement samples at 20 Units CVF/mL of serum for 90 minutes at 37° C. prior to addition of serum to complement assays, and the dilution of serum by CVF accounted for when making sample dilutions.
The cells plus complement source were incubated for an additional 5 minutes at 37° C., and washed 2 times with cold PBS (#14040-133, Gibco/Invitrogen, Grand Island, N.Y.) via centrifugation and resuspended in 100 μl of PBS. Fifty μl from each well was transferred to a second plate for second step control staining. […] Samples were washed, resuspended in cold PBS, and read immediately on a FACsCalibur flow cytometer and analyzed with Cell Quest software (Becton Dickinson, San Jose, Calif.).

Test [4] has as its system CD19+ primary CLL B cells. The experiment in a line: tyrosine phosphorylation, 2D gel anti-phosphotyrosine immunoblot. In kind it is cell-based, human. As to conditions: 5 ug/ml, 10 minutes, then crosslinker 25 ug/ml 5 minutes, FIG. 29. The method, then: Freshly isolated CD19+ cells (−50−100×106) from CLL patients were suspended at a concentration of 5×10^6/ml PBS. Cells were then incubated for 10 minutes at 37° C., 5% CO2, with control, trastuzumab (herceptin), or TRU-016 at a final concentration of 5 ug/ml. Cells were spun down, supernatant was removed, and cells were resuspended in fresh PBS of initial volume. Goat anti-human Fc fragment specific crosslinker (25 ug/ml) was added and cells were incubated for an additional 5 minutes. Cells were again spun down, supernatant was removed, and cells were lysed in 1 ml of RIPA lysis buffer with protease and phosphatase inhibitors (10 mM Tris, ph7.4, 150 mM NaCl,1% Triton X-100, 1% deoxycholic acid, 0.1% SDS and 5 mM EDTA all final concentrations. Sigma protease inhibitor cocktail cat#P-8340; Sigma phosphatase inhibitor cocktail: serine/threonine phosphatase inhibitor cocktail pat#P-2850; and tyrosine phosphatase inhibitor cat#P-5726;PMSF (100 mM) were all used. The inhibitors were added to the lysis buffer immediately prior to use at a 1:100 dilution. Protein concentration in the lysates was quantified by the bicin choninic acid (BCA) method (Pierce, Rockford, Ill.). The control arid treated protein samples (SOug total protein) were separated by two-dimensional gel electrophoresis (pH Range 3-10) (1st Dimension) and 10% SDS-PAGE (2nd Dimension). […]
In general terms: A western blot detects proteins with antibodies after separation by electrophoresis.

[5] abbreviates: established Daudi tumors, 100 μg.

Entries after “also recorded” stand apart in the source; their conditions may differ.

T1 sequence (P02745 23-245): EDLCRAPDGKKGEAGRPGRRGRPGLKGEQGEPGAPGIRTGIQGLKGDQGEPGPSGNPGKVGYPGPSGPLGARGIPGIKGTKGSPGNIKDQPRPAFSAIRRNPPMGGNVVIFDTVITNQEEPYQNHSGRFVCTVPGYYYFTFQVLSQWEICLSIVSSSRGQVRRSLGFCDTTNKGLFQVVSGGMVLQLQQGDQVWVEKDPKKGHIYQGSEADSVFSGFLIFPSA
T1 sequence (P02746 28-253): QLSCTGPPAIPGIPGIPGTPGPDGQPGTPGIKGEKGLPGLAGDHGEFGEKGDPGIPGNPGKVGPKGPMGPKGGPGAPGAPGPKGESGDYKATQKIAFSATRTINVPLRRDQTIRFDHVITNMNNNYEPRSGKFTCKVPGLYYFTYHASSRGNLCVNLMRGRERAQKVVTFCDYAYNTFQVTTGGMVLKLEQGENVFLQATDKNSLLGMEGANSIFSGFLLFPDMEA
T1 sequence (P02747 29-245): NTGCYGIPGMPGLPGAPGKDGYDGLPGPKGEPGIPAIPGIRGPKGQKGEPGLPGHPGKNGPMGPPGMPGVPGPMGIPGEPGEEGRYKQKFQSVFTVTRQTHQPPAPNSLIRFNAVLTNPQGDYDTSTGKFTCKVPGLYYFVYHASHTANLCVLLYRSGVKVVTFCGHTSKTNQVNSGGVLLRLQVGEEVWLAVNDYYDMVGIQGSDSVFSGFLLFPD

Take “G28-1 scFv VH11S(SSC—P)H WCH2 WCH3 [TRU-016]”: the “relative cell viability in cells treated with fludarabine” value in test [1] was “effectively reduced relative cell viability”. For the same substance, the survival time result in test [2] (Daudi tumor xenograft, FIGS. 25 and 26) was “more effective than rituximab in maintaining survival; also recorded: significantly enhanced survival time compared to the control group; also recorded: statistically significant increase in median survival time”. In test [2] (setting [5]), the “Median Survival Time” value turned out to be 24 days and the “Percentage of Tumor Free Mice at Day 90” value is 25%. Also, the “FITC C1q binding” value in test [3] was “does not bind well”. For the same substance, in test [4], the tyrosine phosphorylation result was “induced tyrosine phosphorylation”.
